Source: ChEMBL document CHEMBL3885861, “Open TG-GATES”

Organism: Rattus norvegicus
Assay: Open TG-GATES - Regimen: Single
Format: toxicity, organism-based, Sprague-Dawley
Set-up: regimen Single, gender Male, age 6 weeks
Conditions: in vivo, iv, route intravenous injection; for LIVER: tissue Liver; for A/G / ALP / ALT / AST / BUN / CRE / Ca / Cl / DBIL / GLC / IP / K / LDH / Na / PL / RALB / TBIL / TC / TG / TP / gamma-GTP: tissue Plasma; for APTT / Bas / Eos / Fbg / Hb / Ht / Lym / MCH / MCHC / MCV / Mono / Neu / PT / Plat / RBC / Ret / WBC: tissue Blood; for KIDNEY_L / KIDNEY_R / KIDNEY_TOTAL: tissue Kidney
[1] = 2 mg/kg, 3 h, dose level Middle
[2] = 2 mg/kg, 6 h, dose level Middle

## C[C@@H]1[C@H](O)[C@@H](C)/C=C/C=C/C=C/C=C/C=C/C=C/C=C/[C@H](O[C@@H]2O[C@H](C)[C@@H](O)[C@H](N)[C@@H]2O)C[C@@H]2O[C@](O)(C[C@@H](O)C[C@@H](O)[C@H](O)CC[C@@H](O)C[C@@H](O)CC(=O)O[C@H]1C)C[C@H](O)[C@H]2C(=O)O [AMPHOTERICIN B]
1 mg/kg, 9 h, dose level Low
  LIVER: 8.4 g
  A/G: 0.8
  ALP: 1344.2 IU/L
  ALT: 33 IU/L
  AST: 85 IU/L
  BUN: 16.6 mg/dL
  CRE: 0.1 mg/dL
  Ca: 10.6 mg/dL
  Cl: 106.6 meq/L
  DBIL: 0.012 mg/dL
  GLC: 161.4 mg/dL
  IP: 10.2 mg/dL
  K: 3.8 meq/L
  LDH: 53.6 IU/L
  Na: 142.8 meq/L
  PL: 122.8 mg/dL
  RALB: 2.5 g/dL
  TBIL: 0.07 mg/dL
  TC: 75.8 mg/dL
  TG: 31.4 mg/dL
  TP: 5.6 g/dL
  gamma-GTP: 1.6 IU/L
1 mg/kg, 24 h, dose level Low
  TERMINAL_BW: 224.5 g
  APTT: 14.8 s
  Bas: 0%
  Eos: 1%
  Fbg: 286.6 mg/dL
  Hb: 13.3 g/dL
  Ht: 39.7%
  Lym: 79.8%
  MCH: 21.2 pg
  MCHC: 33.6%
  MCV: 63.1 fL
  Mono: 2.2%
  Neu: 16.6%
  PT: 12 s
  Plat: 135.9 x10_4/uL
  RBC: 628.6 x10_4/ul
  Ret: 7.1%
  WBC: 100.8 x10_2/uL
  KIDNEY_L: 1 g
  KIDNEY_R: 1 g
  KIDNEY_TOTAL: 1.9 g
  LIVER: 10.5 g
  A/G: 0.8
  ALP: 1710.6 IU/L
  ALT: 39.8 IU/L
  AST: 67.8 IU/L
  BUN: 17.2 mg/dL
  CRE: 0.2 mg/dL
  Ca: 11 mg/dL
  Cl: 105.6 meq/L
  DBIL: 0.02 mg/dL
  GLC: 161.8 mg/dL
  IP: 8.2 mg/dL
  K: 3.9 meq/L
  LDH: 50.4 IU/L
  Na: 144 meq/L
  PL: 143.8 mg/dL
  RALB: 2.7 g/dL
  TBIL: 0.056 mg/dL
  TC: 79.4 mg/dL
  TG: 92.2 mg/dL
  TP: 5.8 g/dL
  gamma-GTP: 1.8 IU/L
[1]
  TERMINAL_BW: 220.8 g
  APTT: 17.1 s
  Bas: 0%
  Eos: 1%
  Fbg: 283 mg/dL
  Hb: 13.7 g/dL
  Ht: 38.4%
  Lym: 69%
  MCH: 20.9 pg
  MCHC: 35.8%
  MCV: 58.4 fL
  Mono: 4%
  Neu: 25%
  PT: 12.6 s
  Plat: 117.6 x10_4/uL
  RBC: 657 x10_4/ul
  Ret: 6.8%
  WBC: 144 x10_2/uL
  KIDNEY_L: 1 g
  KIDNEY_R: 0.9 g
  KIDNEY_TOTAL: 1.9 g
  LIVER: 10.3 g
  A/G: 0.8
  ALP: 1456 IU/L
  ALT: 41 IU/L
  AST: 72 IU/L
  BUN: 31 mg/dL
  CRE: 0.2 mg/dL
  Ca: 11 mg/dL
  Cl: 106 meq/L
  DBIL: 0.01 mg/dL
  GLC: 186 mg/dL
  IP: 10.5 mg/dL
  K: 4.4 meq/L
  LDH: 71 IU/L
  Na: 141 meq/L
  PL: 134 mg/dL
  RALB: 2.5 g/dL
  TBIL: 0.07 mg/dL
  TC: 78 mg/dL
  TG: 41 mg/dL
  TP: 5.5 g/dL
  gamma-GTP: 2 IU/L
[2]
  TERMINAL_BW: 211.7 g
  APTT: 15.8 s
  Bas: 0.2%
  Eos: 0%
  Fbg: 236 mg/dL
  Hb: 14.3 g/dL
  Ht: 41.1%
  Lym: 54.8%
  MCH: 21.2 pg
  MCHC: 35%
  MCV: 60.7 fL
  Mono: 3.2%
  Neu: 40.8%
  PT: 12.8 s
  Plat: 138.8 x10_4/uL
  RBC: 676.8 x10_4/ul
  Ret: 8.1%
  WBC: 102.6 x10_2/uL
  KIDNEY_L: 1 g
  KIDNEY_R: 1 g
  KIDNEY_TOTAL: 2.1 g
  LIVER: 9.1 g
  A/G: 0.9
  ALP: 1566.8 IU/L
  ALT: 197 IU/L
  AST: 407 IU/L
  BUN: 43.8 mg/dL
  CRE: 0.4 mg/dL
  Ca: 11 mg/dL
  Cl: 107 meq/L
  DBIL: 0.0175 mg/dL
  GLC: 196.8 mg/dL
